Measurements taken from patent US9499493B2, “2,4-pyrimidinediamine compounds and their uses” (Rigel Pharmaceuticals, Inc., priority 2002, dated 2016).

Legend:
[1] = tested on: cultured human mast cells (CHMC); assay: CHMC low cell density ionomycin activation: tryptase assay; format: cell-based
[2] = tested on: cultured human mast cells (CHMC); assay: CHMC low cell density IgE activation: tryptase assay; format: cell-based; details: anti-IgE
How it was run: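 Degranulation was triggered with anti-IgE for 30 minutes at 37° C in cultured human mast cells seeded at low density (1000-1500 cells/well, chosen by donor) after a 1 hr equilibration in MT buffer. Released tryptase in cleared supernatant was quantified with a tryptase substrate at room temperature for 30 minutes.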

Row | Compound | IC50 [1] [µM] | IC50 [2] [µM] | IC50 ([1]; Homo sapiens, Mast cell) [µM] | IC50 ([2]; Homo sapiens, Mast cell) [µM]
1 | Oc1cccc(Nc2nc(Nc3ccc(OCc4nnn[nH]4)cc3)ncc2F)c1 [R920818, 5-Fluoro-N4-(3-hydroxyphenyl)-N2-[4-(1,2,3,4-tetrazol-5-yl)methyleneoxyphenyl]-2,4-pyrimidinediamine] | > 10 | > 10 |  | 
2 | Oc1cccc(Nc2ncc(F)c(Nc3ccc4cn[nH]c4c3)n2)c1 [R935262, 5-Fluoro-N2-(3-hydroxyphenyl)-N4-(indazoline-6-yl)-2,4-pyrimidinediamine] | > 10 | 0.516 |  | 
3 | CCOC(=O)COc1cccc(Nc2ncc(F)c(Nc3cc(C)c(O)c(C)c3)n2)c1 [R940253, N4-(3,5-Dimethyl-4-hydroxyphenyl)-N2-(3-ethoxycarbonylmethyleneoxyphenyl)-5-fluoro-2,4-pyrimidinediamine] | > 10 | 1.01 |  | 
4 | CNC(=O)COc1cccc(Nc2ncc(F)c(Nc3cccc(C(N)=O)c3)n2)c1 [R940299, 5-Fluoro-N2-[3-(methylaminocarbonylmethyleneoxy)phenyl]-N4-(3-aminocarbonylphenyl)-2,4-pyrimidinediamine] | > 10 | 2.5 |  | 
5 | CC(C)(C)OC(=O)COc1ccc(Nc2nc(Cl)c(Cl)c(Nc3ccc(OCC(=O)OC(C)(C)C)cc3)n2)cc1 [R926576, N2,N4-Bis(4-tert-butoxyoxycarbonylmethyleneoxyphenyl)-5,6-dichloro-2,4-pyrimidinediamine] | > 10 | > 10 |  | 
6 | CNC(=O)COc1cccc(Nc2ncc(F)c(Nc3ccc(-n4cnc(Cl)c4Cl)cc3)n2)c1 [R926812, N4-[4-(4,5-Dichloro-1H-imidazol-1-ylphenyl)]-5-fluoro-N2-[3-(N-methylamino)carbonylmethyleneoxyphenyl]-2,4-pyrimidinediamine] | > 10 | 0.185 |  | 
7 | CCOC1CCOc2ccc(Nc3nc(Nc4cccc(OCC(=O)NC)c4)ncc3F)cc21 (centres unmarked) [R950296, N4-(4-Ethoxy-3,4-dihydro-2H-1-benzopyran-6-yl)-5-fluoro-N2-[3-(N-methylamino)carbonylmethyleneoxyphenyl]-2,4-pyrimidinediamine] | > 10 | 0.495 |  | 
8 | CCOC(=O)COc1cccc(Nc2ncc(F)c(Nc3cc(OC)cc(OC)c3)n2)c1 [R926795, N4-(3,5-Dimethoxyphenyl)-N2-(3-ethoxycarbonylmethyleneoxyphenyl)-5-fluoro-2,4-pyrimidinediamine] | > 10 | 2.04 |  | 
9 | C=CCNC(=O)Oc1cccc(Nc2nc(Nc3cccc(OCC(=O)NC)c3)ncc2F)c1 [R926917, 5-Fluoro-N4-[3-[(N-allylamino)carbonyloxy]phenyl]-N2-[3-[(N-methylamino)carbonylmethyleneoxy]phenyl]-2,4-pyrimidinediamine] | > 10 | 1.17 |  | 
10 | Oc1cccc(Nc2ncc(F)c(Nc3ccc(OCCN4CCOCC4)cc3)n2)c1 [R926710, 5-Fluoro-N2-(3-hydroxyphenyl)-N4-[4-[2-(N-morpholino)ethyleneoxy]phenyl]-2,4-pyrimidinediamine] | > 10 | 1.76 |  | 
11 | Fc1cnc(Nc2ccc3c(c2)OCCO3)nc1Nc1ccc2cn[nH]c2c1 [R935261, N2-(3,4-Ethylenedioxyphenyl)-5-fluoro-N4-(indazoline-6-yl)-2,4-pyrimidinediamine] | > 10 | 0.391 |  | 
12 | CCOC(=O)COc1cccc(Nc2nc(Nc3cccc(O)c3)ncc2F)c1 [R926775, N4-(3-Ethoxycarbonylmethyleneoxyphenyl)-5-fluoro-N2-(3-hydroxyphenyl)-2,4-pyrimidinediamine] | > 10 | 3.47 |  | 
13 | CC(C)(CO)NC(=O)COc1cccc(Nc2ncc(F)c(Nc3ccc4c(c3)OCCO4)n2)c1 [R926764, N4-(3,4-Ethylenedioxyphenyl)-5-fluoro-N2-[3-(N-2-hydroxy-1,1-dimethylethylamino)carboxymethyleneoxyphenyl]-2,4-pyrimidinediamine] | 5.64 | 0.252 |  | 
14 | CCOc1ccc(Nc2ncc([N+](=O)[O-])c(Nc3ccc(OCC)cc3)n2)cc1 [R940090, N2,N4-Bis-(4-ethoxyphenyl)-5-nitro-2,4-pyrimidinediamine] |  |  | > 10 | > 10
15 | CNC(=O)COc1cccc(Nc2ncc(F)c(Nc3cc(C(=O)OC)cc(C(F)(F)F)c3)n2)c1 [R926862, 5-Fluoro-N2-[3-(N-methylamino)carbonylmethyleneoxyphenyl]-N4-(3-methoxycarbonyl-5-trifluoromethylphenyl)-2,4-pyrimidinediamine] | > 10 | 0.774 |  | 
16 | CNC(=O)CCn1ncc2cc(Nc3ncc(F)c(Nc4ccc(Cl)nc4)n3)ccc21 [R935378, N4-(6-Chloro-3-pyridyl)-5-fluoro-N2-[1-[2(N-methylaminocarbonyl)ethyl]indazoline-5-yl]-2,4-pyrimidinediamine] | > 10 | 0.566 |  | 
17 | Cn1nnc(COc2ccc(Nc3ncc(F)c(Nc4ccc(OCc5nnn(C)n5)cc4)n3)cc2)n1 [R945046, N2,N4-Bis[4-(2-methyl-1,2,3,4-tetrazol-5-yl)methyleneoxyphenyl]-5-fluoro-2,4-pyrimidinediamine] | > 10 | 0.82 |  | 

Row | Compound | IC50 [1] [µM] | IC50 [2] [µM] | IC50 ([1]; Homo sapiens, Mast cell) [µM] | IC50 ([2]; Homo sapiens, Mast cell) [µM]
18 | CNC(=O)COc1cccc(Nc2ncc(F)c(Nc3ccc4c(c3)OCCCO4)n2)c1 [R935202, 5-Fluoro-N2-[3-(N-methylamino)carbonylmethyleneoxyphenyl]-N4-(3,4-propylenedioxyphenyl)-2,4-pyrimidinediamine] | 9.77 | 0.181 |  | 
19 | CCOC(=O)c1cnc(Nc2ccc(OCC(=O)N3CCCC3)cc2)nc1Nc1ccc(OCC(=O)N2CCCC2)cc1 [R926562, N2,N4-Bis[4-(N-pyrrolidino)carbonylmethyleneoxyphenyl]-5-ethoxycarbonyl-2,4-pyrimidinediamine] | > 10 | > 10 |  | 
20 | NC(=O)CNc1cccc(Nc2ncc(F)c(Nc3ccc4c(c3)OCCO4)n2)c1 [R950192, N2-[3-(N-Amino)carbonylmethyleneaminophenyl]-N4-(3,4-ethylenedioxyphenyl)-5-fluoro-2,4-pyrimidinediamine] | > 10 | 0.244 |  | 
21 | Cn1nnc(COc2ccc(Nc3nccc(Nc4cccc(O)c4)n3)cc2)n1 [R920910, N4-(3-Hydroxyphenyl)-N2-[4-(2-methyl-1,2,3,4-tetrazol-5-yl)methyleneoxyphenyl]-2,4-pyrimidineamine] | 7.92 | 0.751 |  | 
22 | 5-Fluoro N4-(3-hydroxyphenyl)-N2-(5-methyl-4-oxazolyl-2-phenyl)-2,4-pyrimidinediamine [R926779] | > 10 | > 10 |  | 
23 | N2,N4-Bis(methoxycarbonylbenzyl)-5-cyano-2,4-pyrimidinediamine [R925819] | > 10 | > 10 |  | 
24 | O=C(NCCO)c1cc2cc(Nc3ncc(F)c(Nc4ccc5oc(C(=O)NCCO)cc5c4)n3)ccc2o1 [R950167, N2,N4-Bis[2-(2-hydroxyethyleneamoinocarbonyl)-benzofurane-5-yl]-5-fluoro-2,4-pyrimidinediamine] | > 10 | > 10 |  | 
25 | CC(C)Oc1ccc(Nc2ncc(F)c(Nc3ccc(OCc4nc(-c5ccccc5)no4)cc3)n2)cc1 [R935139, 5-Fluoro-N2-(4-isopropoxyphenyl)-N4-[4-(3-phenyl-1,2,4-oxadiazol-5-yl)methyleneoxyphenyl]-2,4-pyrimidinediamine] | > 10 | 0.846 |  | 
26 | CNC(=O)COc1ccc(Nc2ncc(C#N)c(Nc3cccc(O)c3)n2)cc1 [R925844, 5-Cyano-N4-(3-hydroxyphenyl)-N2-[4-(N-methylamino)carbonylmethyleneoxyphenyl]-2,4-pyrimidinediamine] | > 10 | 5.1 |  | 
27 | Fc1cnc(Nc2ccc3cn[nH]c3c2)nc1Nc1ccc(OC(F)(F)F)c(Cl)c1 [R935368, N4-(3-Chloro-4-trifluoromethoxyphenyl)-5-fluoro-N2-(indazoline-6-yl)-2,4-pyrimidinediamine] | > 10 | 0.082 |  | 
28 | Oc1cccc(Nc2nc(Nc3ccc(C(F)(F)F)c(Cl)c3)ncc2F)c1 [R926844, N2-(3-Chloro-4-trifluoromethylphenyl)-5-fluoro-N4-(3-hydroxyphenyl)-2,4-pyrimidinedimine] | > 10 | 1.1 |  | 
29 | Cc1nc(COc2cccc(Nc3ncc(F)c(Nc4cccc(O)c4)n3)c2)no1 [R945127, 5-Fluoro-N4-(3-hydroxyphenyl)-N2-[3-(5-methyl-1,2,4-oxadiazol-3-yl)methyleneoxyphenyl]-2,4-pyrimidinediamine] | 8.96 | 0.704 |  | 
30 | Fc1cnc(Nc2ccc3[nH]ncc3c2)nc1Nc1cccc(OC(F)(F)F)c1 [R935364, 5-Fluoro-N2-(indazoline-5-yl)-N4-(3-trifluoromethoxyphenyl)-2,4-pyrimidinediamine] | > 10 | 0.563 |  | 
31 | CNC(=O)COc1cccc(Nc2ncc(F)c(Nc3cccc(N)c3)n2)c1 [R950263, N4-(3-Aminophenyl)-5-fluoro-N2-[3-(N-methylamino)carbonylmethyleneoxyphenyl]-2,4-pyrimidinediamine] | 3.3 | 0.284 |  | 
32 | O=C(CNc1cccc(Nc2ncc(F)c(Nc3cccc(NCCO)c3)n2)c1)NCCN1CCOCC1 [R950239, 5-Fluoro-N4-[3-(2-hydroxyethylamino)phenyl]-N2-[3-(N-morpholinoethyleneamino)carbonylmethyleneaminophenyl]-2,4-pyrimidinediamine] | > 10 | 2.06 |  | 
33 | CNC(=O)COc1ccc(Nc2ncc(F)c(Nc3ccc(C(C)(C)C)cc3)n2)cc1 [R926712, N4-(4-tert-Butylphenyl)-5-fluoro-N2-[4-(N-methylamino)carbonylmethyleneoxyphenyl]-2,4-pyrimidinediamine] | > 10 | 1.08 |  | 
34 | CC(C)(C)c1cccc(Nc2nc(Nc3cccc(OCCO)c3)ncc2F)c1 [R940282, N4-(3-tert-Butylphenyl)-5-fluoro-N2-[3-(2-hydroxyethyleneoxy)phenyl]-2,4-pyrimidinediamine] | 3.02 | 0.401 |  | 
